Assay results: US10450316B2, “Certain protein kinase inhibitor” (Chongqing Fochon Pharmaceutical Co., Ltd., priority 2015, dated 2019)

Test system: BE(2)-C cell
Test: Cell proliferation assay (MTS) in BE(2)-C cells
Format: cell-based
Settings: Homo sapiens, inhibition of BE(2)-C cell proliferation, 48 h
Method: MTS testing kit was purchased from Promega. The DMEM, Fetal bovine serum and Penicillin-Streptomycin were purchased from Gibco. Dimethyl sulfoxide (DMSO) was purchased from Sigma.
To investigate whether a compound is able to inhibit the activity of CDK4/6 in cells, mechanism-based assays using BE(2)-C cell (ATCC® number:CRL-2268) were developed. In the assay, inhibition of CDK4/6 was detected by the inhibition of BE(2)-C cell cells proliferation. BE(2)-C cell cells were cultured in culture flasks to 40-80% confluence in DMEM plus 10% fetal bovine serum. Cells were collected and plated onto 96-well plates at cell density of 3000 cells/well. Plates were incubated overnight at 37° C., with 5% CO2 to adhere. Compounds were added to the plates, the final compound concentrations were 10000, 3333, 1111, […], 123.5, 41.2, 13.7, 4.6 and 1.5 nM. Place plates at 37° C., with 5% CO2 for 48 h. After removing the medium, 20 μl MTS/100 μl medium mixture solution were added to each well and incubate the plates for exactly 2 hours. The reaction was terminated by adding 25 μl 10% SDS per well. Measure absorbance at 490 nm and 650 nm (reference wavelength). IC50 was calculated using GraphPad Prism 5.0.
Select compounds prepared as described above were assayed according to the biological procedures described herein. “++++” stands for IC50 value below about 10 nM. “+++” stands for IC50 value between greater than about 10 nM to about 100 nM. “++” stands for IC50 value between greater than about 100 nM to about […]. “+” stands for IC50 value greater than 1 μM.

Row | SMILES | IC50 [nM]
1 | CCN1CC2CCC(C1)N2Cc1ccc(Nc2ncc(F)c(-c3cc(F)c4nc5n(c4c3)[C@H](CF)CC5)n2)nc1 [Example 34, N-(5-((3-ethyl-3,8-diazabicyclo[3.2.1]octan-8-yl)methyl)pyridin-2-yl)-5-fluoro-4-((S)-5-fluoro-1-(fluoromethyl)-2,3-dihydro-1H-benzo[d]pyrrolo[1,2-a]imidazol-7-yl)pyrimidin-2-amine] | 10 to 100
2 | FC[C@@H]1CCc2nc3c(F)cc(-c4nc(Nc5ccc(CN6CC7CCC(C6)N7)cn5)ncc4F)cc3n21 [Example 35, N-(5-((3,8-diazabicyclo[3.2.1]octan-3-yl)methyl)pyridin-2-yl)-5-fluoro-4-((5)-5-fluoro-1-(fluoro-methyl)-2,3-dihydro-1H-benzo[d]pyrrolo[1,2-a]imidazol-7-yl)pyrimidin-2-amine] | > 100
3 | CN1C2CCC1CN(Cc1ccc(Nc3ncc(F)c(-c4cc(F)c5nc6n(c5c4)[C@H](CF)CC6)n3)nc1)C2 [Example 36, 5-fluoro-4-((5)-5-fluoro-1-(fluoromethyl)-2,3-dihydro-1H-benzo[d]pyrrolo[1,2-a]imidazol-7-yl)-N-(5-((8-methyl-3,8-diazabicyclo[3.2.1]octan-3-yl)methyl)pyridin-2-yl)pyrimidin-2-amine] | > 100
4 | CCN1C2CCC1CN(Cc1ccc(Nc3ncc(F)c(-c4cc(F)c5nc6n(c5c4)[C@H](CF)CC6)n3)nc1)C2 [Example 37, N-(5-((8-ethyl-3,8-diazabicyclo[3.2.1]octan-3-yl)methyl)pyridin-2-yl)-5-fluoro-4-((S)-5-fluoro-1-(fluoromethyl)-2,3-dihydro-1H-benzo[d]pyrrolo[1,2-a]imidazol-7-yl)pyrimidin-2-amine] | 10 to 100
5 | Fc1cnc(Nc2ccc(N3CCNCC3)cn2)nc1-c1cc(F)c2nc3n(c2c1)[C@H](C(F)F)CC3 [Example 38, (S)-4-(1-(difluoromethyl)-5-fluoro-2,3-dihydro-1H-benzo[d]pyrrolo[1,2-a]imidazol-7-yl)-5-fluoro-N-(5-(piperazin-1-yl)pyridin-2-yl)pyrimidin-2-amine] | > 100
6 | CCN1CCN(c2ccc(Nc3ncc(F)c(-c4cc(F)c5nc6n(c5c4)[C@H](C(F)F)CC6)n3)nc2)CC1 [Example 40, (S)-4-(1-(difluoromethyl)-5-fluoro-2,3-dihydro-1H-benzo[d]pyrrolo[1,2-a]imidazol-7-yl)-N-(5-(4-ethylpiperazin-1-yl)pyridin-2-yl)-5-fluoropyrimidin-2-amine] | > 1000
7 | Fc1cnc(Nc2ccc(CN3CCN4CCC[C@@H]4C3)cn2)nc1-c1cc(F)c2nc3n(c2c1)[C@H](C(F)F)CC3 [Example 41, 4-((S)-1-(difluoromethyl)-5-fluoro-2,3-dihydro-1H-benzo[d]pyrrolo[1,2-a]imidazol-7-yl)-5-fluoro-N-(5-(((R)-hexahydropyrrolo[1,2-a]pyrazin-2(1H)-yl)methyl)pyridin-2-yl)pyrimidin-2-amine] | 10 to 100
8 | Fc1cnc(Nc2ccc(CN3CC4(CCNCC4)C3)cn2)nc1-c1cc(F)c2nc3n(c2c1)[C@H](C(F)F)CC3 [Example 42, (S)-N-(5-((2,7-diazaspiro[3.5]nonan-2-yl)methyl)pyridin-2-yl)-4-(1-(difluoromethyl)-5-fluoro-2,3-dihydro-1H-benzo[d]pyrrolo[1,2-a]imidazol-7-yl)-5-fluoropyrimidin-2-amine] | > 100
9 | CN1CCC2(CC1)CN(Cc1ccc(Nc3ncc(F)c(-c4cc(F)c5nc6n(c5c4)[C@H](C(F)F)CC6)n3)nc1)C2 [Example 43, (S)-4-(1-(difluoromethyl)-5-fluoro-2,3-dihydro-1H-benzo[d]pyrrolo[1,2-a]imidazol-7-yl)-5-fluoro-N-(5-((7-methyl-2,7-diazaspiro[3.5]nonan-2-yl)methyl)pyridin-2-yl)pyrimidin-2-amine] | 10 to 100
